Experimental data from patent US11771663B2, “Epinephrine spray formulations” (HIKMA PHARMACEUTICALS USA INC., priority 2015, dated 2023).

Experiments:
[1] = Mini-pig pharmacokinetics, single-dose crossover, plasma epinephrine by LC-MS/MS; format: in vivo, Yucatan mini-pigs; details: male, Yucatan, 0.3 mg per animal, minipig, single-dose intramuscular (IM), read-out: geometric mean plasma concentration of epinephrine
Protocol: Protocol design was a single-dose crossover study. Five healthy male Yucatan mini-pigs weighing approximately eighty to ninety-five kilograms each were administered epinephrine formulations. The minipigs were fasted overnight till four hours' post administration. Each dosing was followed by a washout period of at least one-week. Blood samples were taken prior to administration and 2, 5, 10, 15, 20, 30, 45 min, 1, 1.5, 2, 4, and 24 hours' post dose. Minipig plasma samples were measured for epinephrine concentrations via liquid chromatography-tandem mass spectrometry.

[2] = Rabbit pharmacokinetics, single-dose non-crossover, plasma epinephrine by LC-MS/MS; format: in vivo, New Zealand white rabbits; details: male, New Zealand white, intramuscular, 0.03 mg per animal, single-dose IM
Protocol: Protocol design was a single-dose non-crossover study. Pharmacokinetics of a number of epinephrine formulations were evaluated in healthy male New Zealand white rabbits weighing approximately two to three kilograms. For dosing of each formulation, five or six rabbits were used. The rabbits were fasted overnight till four hours' post administration. Blood samples were taken prior to administration and 5, 10, 15, 20, 30, 40 min, 1, 1.5, 2, 4, and 5 hours' post dose. Rabbit plasma samples were measured for epinephrine concentrations via liquid chromatography-tandem mass spectrometry. Formulation #R9 existed as a spray-dried powder of epinephrine bitartrate salt. For the evaluation of #R9, approximately 21.83 mg of powder was dosed to each animal, as an equivalent dose of 12 mg epinephrine.

- concentration at 5 min [1]: 0.046 ng/mL
- concentration at 5 min [2]: 0.988 ng/mL
SMILES: CNC[C@H](O)c1ccc(O)c(O)c1 [epinephrine, Epinephrine]
